From ChEMBL document CHEMBL1201862, “PubChem BioAssay data set” (2004)
Activity calls are given as the source filed them.

Assays:
[1] = target: T1, Corticotropin-releasing factor receptor 2/Corticotropin-releasing factor-binding protein (Homo sapiens, UniProt P24387+Q13324); experiment: activators of CRF receptor 2 with binding protein – uHTS hits, confirmation (AID 602473); type: functional; details: read-out: EC50_Mean
T1 sequence (Q13324 whole entry): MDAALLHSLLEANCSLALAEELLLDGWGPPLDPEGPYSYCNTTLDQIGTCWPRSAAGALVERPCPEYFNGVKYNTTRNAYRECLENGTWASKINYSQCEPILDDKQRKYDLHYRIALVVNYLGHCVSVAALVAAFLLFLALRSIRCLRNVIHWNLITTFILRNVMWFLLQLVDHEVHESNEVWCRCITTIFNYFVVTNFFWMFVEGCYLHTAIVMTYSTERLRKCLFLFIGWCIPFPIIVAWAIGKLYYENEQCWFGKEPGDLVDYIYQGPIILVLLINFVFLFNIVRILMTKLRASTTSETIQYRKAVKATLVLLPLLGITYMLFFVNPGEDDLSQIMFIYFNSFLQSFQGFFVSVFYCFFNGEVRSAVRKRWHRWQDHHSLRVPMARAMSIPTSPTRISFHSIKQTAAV
T1 sequence (P24387 whole entry): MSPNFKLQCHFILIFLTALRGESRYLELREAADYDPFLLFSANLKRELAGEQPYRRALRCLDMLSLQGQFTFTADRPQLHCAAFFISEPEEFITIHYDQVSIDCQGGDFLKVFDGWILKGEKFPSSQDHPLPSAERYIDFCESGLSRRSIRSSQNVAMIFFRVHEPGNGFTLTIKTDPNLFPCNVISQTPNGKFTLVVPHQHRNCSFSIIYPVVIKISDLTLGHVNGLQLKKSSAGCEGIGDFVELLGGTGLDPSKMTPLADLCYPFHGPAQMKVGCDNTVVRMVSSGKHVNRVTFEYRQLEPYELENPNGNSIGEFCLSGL

[2] = target: Peroxisome proliferator-activated receptor gamma (Homo sapiens, UniProt P37231); experiment: PPARg partial agonists, dose response, cell-based, luminescence, assay provider (AID 504447); type: functional
Peroxisome proliferator-activated receptor gamma, sequence (P37231 whole entry, the tested form may be a part): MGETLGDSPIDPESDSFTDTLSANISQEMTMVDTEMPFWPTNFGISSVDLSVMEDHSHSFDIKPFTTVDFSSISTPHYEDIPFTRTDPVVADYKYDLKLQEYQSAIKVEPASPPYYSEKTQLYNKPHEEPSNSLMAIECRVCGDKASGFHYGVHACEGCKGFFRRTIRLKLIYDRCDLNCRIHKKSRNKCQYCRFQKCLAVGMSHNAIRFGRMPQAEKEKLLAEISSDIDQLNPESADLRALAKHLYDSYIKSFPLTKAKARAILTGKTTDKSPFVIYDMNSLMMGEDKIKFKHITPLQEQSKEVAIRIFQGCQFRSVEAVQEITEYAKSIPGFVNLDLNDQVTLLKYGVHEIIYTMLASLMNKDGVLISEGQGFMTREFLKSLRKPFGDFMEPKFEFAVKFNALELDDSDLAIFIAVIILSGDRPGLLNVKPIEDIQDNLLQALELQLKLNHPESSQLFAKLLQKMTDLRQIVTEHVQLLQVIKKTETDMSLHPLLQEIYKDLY

[3] = target: T2, RNA-binding protein pos-1 (Caenorhabditis elegans, UniProt G5EF15); experiment: inhibitors of POS-1/mex-3 RNA binding, dose response, biochemical, fluorescence polarization (AID 1964);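 note: purified POS-1 fused to maltose binding protein made in E. coli; potency of compounds blocking POS-1 binding to fluorescent RNA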
T2 sequence (G5EF15 whole entry): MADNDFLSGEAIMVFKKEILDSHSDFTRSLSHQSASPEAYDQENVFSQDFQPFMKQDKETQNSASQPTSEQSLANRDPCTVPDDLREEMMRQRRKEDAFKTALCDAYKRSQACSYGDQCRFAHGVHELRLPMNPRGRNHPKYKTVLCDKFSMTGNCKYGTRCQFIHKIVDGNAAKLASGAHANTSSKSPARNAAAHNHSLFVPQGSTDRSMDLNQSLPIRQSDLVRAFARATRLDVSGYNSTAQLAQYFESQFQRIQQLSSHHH

[4] = target: T3, Zinc finger protein mex-5 (Caenorhabditis elegans, UniProt Q9XUB2); experiment: MEX-5/TCR-2 RNA interaction inhibitors, dose response, biochemical, C. elegans, fluorescence polarization (AID 1960)
T3 sequence (Q9XUB2 whole entry): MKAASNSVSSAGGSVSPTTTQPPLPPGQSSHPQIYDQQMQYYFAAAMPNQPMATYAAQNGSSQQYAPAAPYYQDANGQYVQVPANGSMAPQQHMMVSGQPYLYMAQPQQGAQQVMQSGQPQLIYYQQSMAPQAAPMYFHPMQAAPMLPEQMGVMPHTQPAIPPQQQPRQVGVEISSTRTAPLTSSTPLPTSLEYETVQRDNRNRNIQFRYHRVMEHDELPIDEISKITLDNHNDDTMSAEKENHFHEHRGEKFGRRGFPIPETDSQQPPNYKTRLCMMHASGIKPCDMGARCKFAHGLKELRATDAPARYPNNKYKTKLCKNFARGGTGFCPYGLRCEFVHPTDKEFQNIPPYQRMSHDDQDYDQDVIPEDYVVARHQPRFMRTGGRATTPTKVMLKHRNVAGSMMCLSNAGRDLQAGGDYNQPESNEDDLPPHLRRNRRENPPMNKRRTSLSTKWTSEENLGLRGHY

Vero = experiment: cells; type: functional; details: Chlorocebus sabaeus
Large T antigen = Large T antigen (Simian virus 40, UniProt P03070); type: functional, Betapolyomavirus macacae;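 note: Confirmatory-stage PubChem screen for compounds that inhibit SV40 T antigen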
Large T antigen, sequence (P03070 whole entry): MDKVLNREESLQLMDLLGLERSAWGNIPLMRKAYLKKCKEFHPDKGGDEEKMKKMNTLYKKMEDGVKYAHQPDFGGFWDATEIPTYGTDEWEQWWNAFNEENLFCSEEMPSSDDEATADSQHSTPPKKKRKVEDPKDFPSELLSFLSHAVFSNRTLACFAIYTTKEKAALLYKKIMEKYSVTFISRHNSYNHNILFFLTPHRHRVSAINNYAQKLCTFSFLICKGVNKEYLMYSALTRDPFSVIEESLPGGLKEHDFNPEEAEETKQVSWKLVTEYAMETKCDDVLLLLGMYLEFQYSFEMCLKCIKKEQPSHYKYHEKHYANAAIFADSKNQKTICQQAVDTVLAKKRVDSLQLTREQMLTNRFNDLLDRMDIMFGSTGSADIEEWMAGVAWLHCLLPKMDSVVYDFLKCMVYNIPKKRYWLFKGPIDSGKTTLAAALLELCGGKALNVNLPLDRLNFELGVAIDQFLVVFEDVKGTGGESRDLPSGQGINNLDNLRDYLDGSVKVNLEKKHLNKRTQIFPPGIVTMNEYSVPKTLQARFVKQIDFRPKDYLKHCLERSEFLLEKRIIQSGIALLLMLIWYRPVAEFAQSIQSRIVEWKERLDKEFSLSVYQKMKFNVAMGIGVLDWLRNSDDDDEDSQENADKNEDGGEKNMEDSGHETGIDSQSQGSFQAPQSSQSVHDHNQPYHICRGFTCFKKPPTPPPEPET

[5] = target: Intestinal-type alkaline phosphatase (Mus musculus, UniProt P24822); experiment: mouse intestinal alkaline phosphatase activators, dose response, biochemical, luminescence, uHTS hits (AID 488783); type: functional
Intestinal-type alkaline phosphatase (Mus musculus, UniProt P24822), sequence (P24822 whole entry): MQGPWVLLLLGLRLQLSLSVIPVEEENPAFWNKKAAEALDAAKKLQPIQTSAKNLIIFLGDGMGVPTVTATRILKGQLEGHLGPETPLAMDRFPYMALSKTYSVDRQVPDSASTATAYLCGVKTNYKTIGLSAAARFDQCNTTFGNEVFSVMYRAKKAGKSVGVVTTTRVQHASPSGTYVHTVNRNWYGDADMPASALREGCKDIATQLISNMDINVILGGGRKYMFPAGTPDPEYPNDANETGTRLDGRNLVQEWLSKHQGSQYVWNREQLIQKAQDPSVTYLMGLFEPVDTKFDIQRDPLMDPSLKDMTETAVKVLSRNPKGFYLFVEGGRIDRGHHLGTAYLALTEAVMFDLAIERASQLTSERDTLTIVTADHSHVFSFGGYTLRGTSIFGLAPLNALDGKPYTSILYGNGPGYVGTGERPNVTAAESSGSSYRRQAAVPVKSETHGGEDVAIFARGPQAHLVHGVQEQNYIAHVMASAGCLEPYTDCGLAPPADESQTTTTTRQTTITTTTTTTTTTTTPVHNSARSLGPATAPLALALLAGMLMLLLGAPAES

[6] = target: Intestinal-type alkaline phosphatase (Homo sapiens, UniProt P09923); experiment: activation of human intestinal alkaline phosphatase – biochemical, dose response (AID 488873); type: functional
Intestinal-type alkaline phosphatase (Homo sapiens, UniProt P09923), sequence (P09923 whole entry): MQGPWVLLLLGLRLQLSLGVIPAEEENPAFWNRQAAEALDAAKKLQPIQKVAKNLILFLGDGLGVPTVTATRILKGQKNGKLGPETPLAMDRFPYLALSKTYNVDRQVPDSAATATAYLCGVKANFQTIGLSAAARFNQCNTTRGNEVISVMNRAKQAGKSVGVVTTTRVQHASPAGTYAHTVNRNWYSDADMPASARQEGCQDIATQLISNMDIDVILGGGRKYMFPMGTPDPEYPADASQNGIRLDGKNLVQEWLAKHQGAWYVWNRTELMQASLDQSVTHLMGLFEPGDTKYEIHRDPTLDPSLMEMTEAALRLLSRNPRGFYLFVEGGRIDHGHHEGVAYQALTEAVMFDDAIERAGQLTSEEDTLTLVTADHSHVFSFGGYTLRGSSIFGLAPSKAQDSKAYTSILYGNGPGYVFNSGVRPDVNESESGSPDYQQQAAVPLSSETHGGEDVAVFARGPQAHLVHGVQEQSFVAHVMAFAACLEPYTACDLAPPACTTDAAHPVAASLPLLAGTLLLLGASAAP

[7] = target: T4, Alkaline phosphatase, tissue-nonspecific isozyme (Homo sapiens, UniProt P05186); experiment: TNAP enzyme activators, dose response, selectivity assay for mouse IAP activator project, biochemical, TNAP isozyme, mouse IAP uHTS hits (AID 488880); type: functional
T4 sequence (P05186 whole entry): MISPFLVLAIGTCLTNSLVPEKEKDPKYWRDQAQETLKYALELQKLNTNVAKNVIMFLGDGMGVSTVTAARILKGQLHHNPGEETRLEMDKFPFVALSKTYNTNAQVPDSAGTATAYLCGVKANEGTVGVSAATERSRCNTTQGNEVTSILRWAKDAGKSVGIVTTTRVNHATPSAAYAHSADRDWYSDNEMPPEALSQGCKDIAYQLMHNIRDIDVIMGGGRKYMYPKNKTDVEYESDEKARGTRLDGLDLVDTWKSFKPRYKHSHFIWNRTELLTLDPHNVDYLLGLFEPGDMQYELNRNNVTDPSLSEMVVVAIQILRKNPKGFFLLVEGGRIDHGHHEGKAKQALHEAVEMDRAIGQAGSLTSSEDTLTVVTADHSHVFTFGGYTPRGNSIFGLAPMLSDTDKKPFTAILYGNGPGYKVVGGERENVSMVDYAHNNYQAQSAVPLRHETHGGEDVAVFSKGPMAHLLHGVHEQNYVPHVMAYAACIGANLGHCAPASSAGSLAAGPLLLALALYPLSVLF

[8] = target: Induced myeloid leukemia cell differentiation protein Mcl-1 (Homo sapiens, UniProt Q07820); experiment: MCL1-BIM BH3 interaction inhibitors, dose response, biochemical, fluorescence polarization, BIM-BH3 peptide, 1536-well (AID 2217)
Induced myeloid leukemia cell differentiation protein Mcl-1, sequence (Q07820 whole entry): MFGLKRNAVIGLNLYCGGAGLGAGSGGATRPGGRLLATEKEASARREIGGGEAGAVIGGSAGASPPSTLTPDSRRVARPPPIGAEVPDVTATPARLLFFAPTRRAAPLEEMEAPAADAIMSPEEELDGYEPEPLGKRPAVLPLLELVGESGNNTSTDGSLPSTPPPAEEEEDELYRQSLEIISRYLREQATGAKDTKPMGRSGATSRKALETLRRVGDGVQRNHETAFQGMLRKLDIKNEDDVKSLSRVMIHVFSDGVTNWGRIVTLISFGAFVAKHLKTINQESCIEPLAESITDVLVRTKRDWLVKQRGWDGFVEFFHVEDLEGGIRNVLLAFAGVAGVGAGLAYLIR

[9] = target: Glucose-6-phosphate 1-dehydrogenase (Homo sapiens, UniProt P11413); experiment: human G6PD enzyme inhibitors, dose response, selectivity assay for P. falciparum G6PD inhibitor project, biochemical, fluorescence (AID 504792); type: functional
Glucose-6-phosphate 1-dehydrogenase, sequence (P11413 whole entry): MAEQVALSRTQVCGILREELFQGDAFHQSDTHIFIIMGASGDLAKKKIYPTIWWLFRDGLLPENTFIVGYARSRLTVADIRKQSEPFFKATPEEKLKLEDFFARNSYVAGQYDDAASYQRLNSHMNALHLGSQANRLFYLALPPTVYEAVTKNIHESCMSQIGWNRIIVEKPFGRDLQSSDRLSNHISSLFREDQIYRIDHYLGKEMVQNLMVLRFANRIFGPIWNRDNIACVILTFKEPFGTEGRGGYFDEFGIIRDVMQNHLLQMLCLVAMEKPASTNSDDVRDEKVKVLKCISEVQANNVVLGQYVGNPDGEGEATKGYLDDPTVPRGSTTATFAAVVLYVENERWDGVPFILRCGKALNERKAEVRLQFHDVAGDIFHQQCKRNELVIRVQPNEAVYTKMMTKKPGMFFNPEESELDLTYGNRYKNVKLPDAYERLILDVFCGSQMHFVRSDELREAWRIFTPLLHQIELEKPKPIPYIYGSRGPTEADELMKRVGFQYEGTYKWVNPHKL

[10] = target: Heat shock protein HSP 90-alpha (Homo sapiens, UniProt P07900); type: functional, organism-based
Bcl-2-like protein 1 = Bcl-2-like protein 1 (Homo sapiens, UniProt Q07817); experiment: BCL-XL inhibitors, dose response, selectivity assay for MCL1 inhibitor project, biochemical, fluorescence polarization, 1536-well (AID 2218)
Bcl-2-like protein 1, sequence (Q07817 whole entry): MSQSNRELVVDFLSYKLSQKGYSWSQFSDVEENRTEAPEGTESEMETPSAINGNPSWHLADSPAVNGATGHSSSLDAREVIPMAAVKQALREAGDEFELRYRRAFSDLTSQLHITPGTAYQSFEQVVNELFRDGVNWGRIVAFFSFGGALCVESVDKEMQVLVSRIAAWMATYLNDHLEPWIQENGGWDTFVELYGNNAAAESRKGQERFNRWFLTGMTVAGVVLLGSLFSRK

SUMO-activating enzyme = SUMO-activating enzyme (Homo sapiens, UniProt Q9UBT2); experiment: SUMOylation inhibitor hit validation, confirmation, SUMOylation inhibitor project, biochemical, AlphaScreen (AID 2018); type: functional
SUMO-activating enzyme, sequence (Q9UBE0 whole entry): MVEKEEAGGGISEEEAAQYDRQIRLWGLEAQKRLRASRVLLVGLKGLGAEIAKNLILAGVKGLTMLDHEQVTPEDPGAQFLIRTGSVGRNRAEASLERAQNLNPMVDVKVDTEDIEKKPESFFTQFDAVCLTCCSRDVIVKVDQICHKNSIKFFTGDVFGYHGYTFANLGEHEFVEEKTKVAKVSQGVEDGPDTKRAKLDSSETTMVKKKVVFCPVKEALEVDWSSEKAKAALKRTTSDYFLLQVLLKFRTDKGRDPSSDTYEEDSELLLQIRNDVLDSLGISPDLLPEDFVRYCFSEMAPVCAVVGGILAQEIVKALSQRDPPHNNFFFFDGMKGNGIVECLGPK
SUMO-activating enzyme, sequence (Q9UBT2 whole entry): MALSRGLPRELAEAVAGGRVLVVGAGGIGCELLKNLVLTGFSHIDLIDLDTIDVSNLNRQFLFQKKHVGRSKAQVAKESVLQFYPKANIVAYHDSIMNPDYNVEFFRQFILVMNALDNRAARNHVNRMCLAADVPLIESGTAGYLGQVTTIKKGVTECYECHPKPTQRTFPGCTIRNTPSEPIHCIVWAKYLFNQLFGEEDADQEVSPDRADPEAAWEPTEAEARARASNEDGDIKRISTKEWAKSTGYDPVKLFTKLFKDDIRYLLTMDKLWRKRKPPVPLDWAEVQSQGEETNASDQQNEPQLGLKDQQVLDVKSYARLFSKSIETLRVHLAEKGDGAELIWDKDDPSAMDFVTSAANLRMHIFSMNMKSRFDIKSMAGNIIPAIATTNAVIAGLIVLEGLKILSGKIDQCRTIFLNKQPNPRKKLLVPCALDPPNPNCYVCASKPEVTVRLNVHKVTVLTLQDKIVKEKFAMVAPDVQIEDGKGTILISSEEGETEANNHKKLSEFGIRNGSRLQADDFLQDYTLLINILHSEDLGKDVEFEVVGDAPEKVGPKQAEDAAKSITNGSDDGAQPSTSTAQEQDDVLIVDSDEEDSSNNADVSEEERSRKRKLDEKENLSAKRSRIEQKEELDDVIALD

Troponin, cardiac muscle = Troponin, cardiac muscle (Homo sapiens, UniProt P19429+P45379+P63316); experiment: Fluorescence-based biochemical high throughput dose response assay for activators of the calcium sensitivity of cardiac Regulated Thin Filaments (RTF). [Related pubchem assays (depositor defined):AID493008, AID493018, AID504382, AID504383]; type: protein-complex assay

`COc1ccccc1N1C(=O)C2C(C(=O)c3ccccc3)=NN(c3ccc(C)cc3)C2C1=O` (stereo not given) was tested, and the EC50 [1] was 5.27 µM (active), the EC50 [2] was 1.7 µM (active) and the EC50 [3] was 13.7 µM (inconclusive). The EC50 [4] was 14.3 µM (active).

For `O=C1NC(=S)NC(=O)C1=Cc1ccc(Br)s1`, the CC50 (Vero) was 21.4 µM (active), the IC50 (Large T antigen) was 64.5 µM (active) and the EC50 [5] was 59.7 µM (active). For the same compound, the EC50 [6] was 76.8 µM (active), the EC50 [7] was 61.6 µM (active) and the IC50 [8] was > 12.1 µM (not active). The IC50 [9] was 36.4 µM (inactive), the AC50 [10] was 25.6 µM (active) and the IC50 (Bcl-2-like protein 1) was > 109 µM (not active).

For `Cn1c2ccccc2c2cnn(CC(=O)Nc3ccc(Cl)cc3)c(=O)c21`, the IC50 (SUMO-activating enzyme) was 46 µM (active).

With `O=C(O)CCC(=O)Nc1cc(C(F)(F)F)cc(C(F)(F)F)c1` the EC50 (Troponin, cardiac muscle) was > 71.4 µM (inactive).
